What all share (assay type): cell-based, human
Assay [1] has as its system NK1R (neurokinin 1 receptor) gene. The assay is described as follows: Gene expression assay by real-time PCR (NK1R) in melanocytes. The conditions noted are these: melanocytes (KaMC), 2 nM substance P, 5 days. Here is the method:
(§1) Melanocytes (KaMC; KCTC 12015BP) deposited in the Korean Collection for Type Culture (KCTC) were cultured in M-254 medium (Gibco BRL, NY, USA) supplemented with Human Melanocyte Growth Supplement (HMGS; Gibco BRL, NY, USA) on a 6-well plate, while changing the medium every other day, in a 5% CO2 incubator at 37° C. until the cells occupied 95% of the plate area (95% confluence). […] The cells not treated with substance P or the alpine skullcap (Scutellaria alpina) extract of Example 1 were used as a control group. After removing the medium form the melanocytes cultured on the 6-well plate, the cells were washed 2 times with cold phosphate-buffered saline (PBS) and the remaining water was completely removed. […] 1 μL of the RNA was quantified using Synergy II (Biotek, USA). […] After adding 10 μL of Taqman Gene Expression Master Mix (Life Technologies, USA) and 1 μL of Assays-on-DemandTM (Life Technologies, USA) of NK1R (ACCESSION: NM_001058) and EDN1 (ACCESSION: NM_001168319) genes to 9 μL of the diluted cDNA, the expression of the genes was analyzed by relative quantification using 7500 Fast Real-Time PCR (Life Technologies, USA) with glyceraldehyde 3-phosphate dehydrogenase (GAPDH, ACCESSION: NM001256799) as a control gene. […]

A further assay concerns EDN1 (endothelin 1) gene. The assay is described as follows: Gene expression assay by real-time PCR (EDN1) in melanocytes. Particulars: melanocytes (KaMC), 2 nM substance P, 5 days. On the procedure: as §1
Another assay concerns endothelin 1 (EDN1). The experiment in a line: Endothelin 1 ELISA assay of culture medium of treated melanocytes. The conditions noted are these: melanocytes (KaMC), 2 nM substance P. On the procedure: When the density of the melanocytes on the 6-well plate reached about 80% (˜80% confluence), they were incubated for a total of 5 days with 2 nM of stress-inducing substance P (Bachem Fechemikalien, Bubendorf, Switzerland) or the alpine skullcap (Scutellaria alpina) extract of Example 1 of different concentrations (0, 0.1, 1, 2 and 5 ppm). The cells not treated with substance P or the alpine skullcap (Scutellaria alpina) extract of Example 1 were used as a control group.
The culture medium of the cells treated with the extract in (2) of Test Example 1 were recovered and the amount of endothelin 1 (EDN1) comprised in the medium was measured at 450 nm using the human total endothelin ELISA kit (MyBioSource, USA).
Endothelin content (%)=(Absorbance/Total protein)×100 [Equation 1]

The results in this text go back to patent US20170035828A1, “COMPOSITION CONTAINING SCUTELLARIA ALPINA EXTRACT” (AMOREPACIFIC CORPORATION, priority 2014, published 2017).

As for `CSCC[C@H](NC(=O)[C@H](CC(C)C)NC(=O)CNC(=O)[C@H](Cc1ccccc1)NC(=O)[C@H](Cc1ccccc1)NC(=O)[C@H](CCC(N)=O)NC(=O)[C@H](CCC(N)=O)NC(=O)[C@@H]1CCCN1C(=O)[C@H](CCCCN)NC(=O)[C@@H]1CCCN1C(=O)[C@@H](N)CCCN=C(N)N)C(N)=O` [substance P], the “expression of the NK1R gene (relative quantification vs GAPDH, control group = 1)” value in assay [1] was 3.8. Further, the “expression of the EDN1 gene (relative quantification vs GAPDH, control group = 1)” value in the assay with EDN1 (endothelin 1) gene came out at 3.3. In the assay on endothelin 1 (EDN1), the “content of endothelin 1 (Absorbance/Total protein x 100, control group = 100%)” value is listed as 124%.
